# Source: patent US20120270819A1, “USE OF COMPOUNDS WITH SGLT-1/SGLT-2 INHIBITOR ACTIVITY FOR PRODUCING MEDICAMENTS FOR TREATMENT OF BONE DISEASE” (SANOFI, priority 2009, published 2012)
# System: female Sprague-Dawley mature and young adult rats
# Assay: Ex vivo dual energy X-ray absorptiometry (DXA) of right femur, 28-day oral rat study
# Type: in vivo
# Conditions: Mature Adults
# Description: The following were evaluated: clinical signs (at least weekly), body weight (weekly), food consumption (weekly), hormones (Days 13 and 27), serum and urinary biochemical markers of bone turnover (Days 13 and 27), serum chemistry (at necropsy), bone densitometry by dual energy X-ray absorptiometry (DXA) and peripheral quantitative computed tomography (pQCT) (Week 2 and 4, as well as ex vivo), macroscopic observations at necropsy, organ weights, histopathology, biomechanical strength testing and femoral length measurements.
# 3.1 Ex Vivo Dual Energy X-Ray Absorptiometry (DXA)
# DXA was used to measure bone mineral density (BMD), bone mineral content (BMC) and area. Single DXA scans were obtained for the excised right femur from all animals euthanized at the end of the treatment period (except three animals due to damaged femoral condyles) as well as two found dead animals. These exclusions had no adverse impact on the overall outcome of the study as sufficient specimens were measured in each groups. Scans were performed with a Hologic Discovery A bone densitometer as per PCS-MTL Standard Operating Procedures.
compound,measurement,setting,value
COc1ccc(Cc2c(OC3OC(CO)C(F)C(O)C3O)n[nH]c2C(F)(F)F)cc1 (stereo not drawn) [Example 5 of formula II],"DXA femur Distal Area, percent difference from Vehicle Control",10 mg/kg/day,1.7%
same,"DXA femur Distal BMC, percent difference from Vehicle Control",10 mg/kg/day,6.2%
same,"DXA femur Distal BMD, percent difference from Vehicle Control",10 mg/kg/day,4.4%
same,"DXA femur Global Area, percent difference from Vehicle Control",10 mg/kg/day,1.9%
same,"DXA femur Global BMC, percent difference from Vehicle Control",10 mg/kg/day,6.0%
same,"DXA femur Global BMD, percent difference from Vehicle Control",10 mg/kg/day,4.0%
same,"DXA femur Mid Area, percent difference from Vehicle Control",10 mg/kg/day,3.9%
same,"DXA femur Mid BMC, percent difference from Vehicle Control",10 mg/kg/day,6.4%
same,"DXA femur Mid BMD, percent difference from Vehicle Control",10 mg/kg/day,2.4%
same,"DXA femur Proximal Area, percent difference from Vehicle Control",10 mg/kg/day,2.4%
same,"DXA femur Proximal BMC, percent difference from Vehicle Control",10 mg/kg/day,6.1%
same,"DXA femur Proximal BMD, percent difference from Vehicle Control",10 mg/kg/day,3.7%
same,"DXA femur Mid Area, percent difference from Vehicle Control",10 mg/kg/day (Table 5a),3.86%
same,"DXA femur Mid BMC, percent difference from Vehicle Control",10 mg/kg/day (Table 5a),6.45%
same,"DXA femur Mid BMD, percent difference from Vehicle Control",10 mg/kg/day (Table 5a),2.35%
same,DXA femur Distal Area,"10 mg/kg/day, mean",0.41 cm^2
same,DXA femur Distal BMC,"10 mg/kg/day, mean",0.14 g
same,DXA femur Distal BMD,"10 mg/kg/day, mean",0.34 g/cm^2
same,DXA femur Global Area,"10 mg/kg/day, mean",1.91 cm^2
same,DXA femur Global BMC,"10 mg/kg/day, mean",0.52 g
same,DXA femur Global BMD,"10 mg/kg/day, mean",0.27 g/cm^2
same,DXA femur Mid Area,"10 mg/kg/day, mean",0.45 cm^2
same,DXA femur Mid BMC,"10 mg/kg/day, mean",0.11 g
same,DXA femur Mid BMD,"10 mg/kg/day, mean",0.24 g/cm^2
same,DXA femur Proximal Area,"10 mg/kg/day, mean",0.63 cm^2
same,DXA femur Proximal BMC,"10 mg/kg/day, mean",0.18 g
same,DXA femur Proximal BMD,"10 mg/kg/day, mean",0.28 g/cm^2
same,DXA femur Mid Area,"10 mg/kg/day, mean (Table 5a)",0.45 cm^2
same,DXA femur Mid BMC,"10 mg/kg/day, mean (Table 5a)",0.11 g
same,DXA femur Mid BMD,"10 mg/kg/day, mean (Table 5a)",0.24 g/cm^2
same,"DXA femur Distal Area, percent difference from Vehicle Control",50 mg/kg/day,−0.1%
same,"DXA femur Distal BMC, percent difference from Vehicle Control",50 mg/kg/day,8.3%
same,"DXA femur Distal BMD, percent difference from Vehicle Control",50 mg/kg/day,8.4%
same,"DXA femur Global Area, percent difference from Vehicle Control",50 mg/kg/day,−1.2%
same,"DXA femur Global BMC, percent difference from Vehicle Control",50 mg/kg/day,3.7%
same,"DXA femur Global BMD, percent difference from Vehicle Control",50 mg/kg/day,5.0%
same,"DXA femur Mid Area, percent difference from Vehicle Control",50 mg/kg/day,−1.0%
same,"DXA femur Mid BMC, percent difference from Vehicle Control",50 mg/kg/day,1.2%
same,"DXA femur Mid BMD, percent difference from Vehicle Control",50 mg/kg/day,2.3%
same,"DXA femur Proximal Area, percent difference from Vehicle Control",50 mg/kg/day,0.1%
same,"DXA femur Proximal BMC, percent difference from Vehicle Control",50 mg/kg/day,3.0%
same,"DXA femur Proximal BMD, percent difference from Vehicle Control",50 mg/kg/day,2.9%
same,"DXA femur Mid Area, percent difference from Vehicle Control",50 mg/kg/day (Table 5a),−0.97%
same,"DXA femur Mid BMC, percent difference from Vehicle Control",50 mg/kg/day (Table 5a),1.25%
same,"DXA femur Mid BMD, percent difference from Vehicle Control",50 mg/kg/day (Table 5a),2.26%
same,DXA femur Distal Area,"50 mg/kg/day, mean",0.41 cm^2
same,DXA femur Distal BMC,"50 mg/kg/day, mean",0.14 g
same,DXA femur Distal BMD,"50 mg/kg/day, mean",0.35 g/cm^2
same,DXA femur Global Area,"50 mg/kg/day, mean",1.85 cm^2
same,DXA femur Global BMC,"50 mg/kg/day, mean",0.51 g
same,DXA femur Global BMD,"50 mg/kg/day, mean",0.27 g/cm^2
same,DXA femur Mid Area,"50 mg/kg/day, mean",0.43 cm^2
same,DXA femur Mid BMC,"50 mg/kg/day, mean",0.11 g
same,DXA femur Mid BMD,"50 mg/kg/day, mean",0.24 g/cm^2
same,DXA femur Proximal Area,"50 mg/kg/day, mean",0.61 cm^2
same,DXA femur Proximal BMC,"50 mg/kg/day, mean",0.17 g
same,DXA femur Proximal BMD,"50 mg/kg/day, mean",0.28 g/cm^2
same,DXA femur Mid Area,"50 mg/kg/day, mean (Table 5a)",0.43 cm^2
same,DXA femur Mid BMC,"50 mg/kg/day, mean (Table 5a)",0.11 g
same,DXA femur Mid BMD,"50 mg/kg/day, mean (Table 5a)",0.24 g/cm^2
